Data published in US20160058782A1, “MAILLARD REACTION INHIBITOR” (MORISHITA JINTAN CO., LTD., priority 2011, published 2016).
Converted amounts (≈) assume the structure as drawn.

Test system: Maillard reaction (Human Serum Albumin and Glucose)
Assay: Measurement of the Maillard reaction inhibitory activity (fluorescent products of human serum albumin and glucose, 60° C., 40 hours)
Details: for IC50 values compared with tannic acid, ellagic acid dihydrate and aminoguanidine / Maillard reaction inhibitory activity compared with aminoguanidine (positive control) / Maillard reaction inhibition ratio (%) compared with ellagic acid dihydrate and aminoguanidine: in words; for Maillard reaction inhibitory activity compared with aminoguanidine (positive control): Tables 2 and 3; for Maillard reaction inhibition ratio (%) compared with ellagic acid dihydrate and aminoguanidine: when prepared at lower concentrations; for IC50: human, 40 h
Description: A pomegranate extract (containing 50% by mass of polyphenol; manufactured by Morishita Jintan Co., Ltd.), punicalin, punicalagin, oenothein B, eucarbanin B, punicacortein C, a compound represented by the formula (VI), and a compound represented by the formula (VII) were used as samples to be examined. Tannic acid and ellagic acid dihydrate were used for comparison. Aminoguanidine was used as a positive control. […], 300 μg/mL and 1,000 μg/mL, and the Maillard reaction inhibitory activity of the prepared solutions was measured. The inhibitory activity was measured as follows.
Four reaction solutions A to D shown in Table 1 below were prepared using the above-described prepared solutions of the samples, and were incubated at 60° C. for 40 hours to cause the Maillard reaction. Thereafter, 400 μL of the reaction solutions A to D was diluted with 2,400 μL of distilled water and diluted samples were obtained. The fluorescence intensity (the excitation light: 370 nm; the measurement light: 440 nm) of the diluted samples was measured and was expressed as a relative value with respect to the fluorescence intensity of 0.1 μg/mL solution of quinine sulfate that was taken as 100 to calculate the amount of fluorescent products of the Maillard reaction (quantitative value).
Next, the Maillard reaction inhibition ratio (%) with respect to the above-described prepared solutions (concentration (μg/mL)) of the samples was calculated from the obtained quantitative value using the following equation.
Equation: Inhibition ratio (%)=100−[(a−b)/(c−d)]×100 [Formula 1]
where a represents a relative value (−) of the fluorescent products of the Maillard reaction with the reaction solution A calculated in terms of quinine sulfate,
b represents a relative value (−) of the fluorescent products of the Maillard reaction in terms of quinine sulfate when the reaction solution B is used,
c represents a relative value (−) of the fluorescent products of the Maillard reaction in terms of quinine sulfate when the reaction solution C is used, and
d represents a relative value (−) of the fluorescent products of the Maillard reaction in terms of quinine sulfate when the reaction solution D is used.
Thereafter, 50% inhibition ratio (IC50) of each sample was calculated as follows. That is, the inhibition ratio was plotted with respect to the sample concentration, 4-parameter plot was performed, and the concentration showing an inhibition ratio of 50% was taken as IC50.

SMILES | IC50 [mg/L] | Maillard reaction inhibition ratio (%) (Conc. 0.01 mg/mL) | Maillard reaction inhibition ratio (%) (Conc. 0.1 mg/mL) | Maillard reaction inhibition ratio (%) (Conc. 1 mg/mL) | Maillard reaction inhibition ratio (%) (Conc. 10 mg/mL) | IC50 values compared with tannic acid, ellagic acid dihydrate and aminoguanidine | Maillard reaction inhibitory activity compared with aminoguanidine (positive control) | Maillard reaction inhibition ratio (%) compared with ellagic acid dihydrate and aminoguanidine | Maillard reaction inhibition ratio (%) (Conc. 100 mg/mL) | Maillard reaction inhibition ratio (%) (Conc. 300 mg/mL) | Maillard reaction inhibition ratio (%) (Conc. 1000 mg/mL) | Maillard reaction inhibition ratio (%) (Conc. 0.03 mg/mL) | Maillard reaction inhibition ratio (%) (Conc. 0.3 mg/mL)
O=C(OC1C(O)OC2COC(=O)c3cc(Oc4c(C(=O)OC5C(O)OC6COC(=O)c7cc(Oc8c(C(=O)OC9C(O)OC%10COC(=O)c%11cc(Oc%12c(C(=O)OC%13C(O)OC%14COC(=O)c%15cc(O)c(O)c(O)c%15-c%15c(cc(O)c(O)c%15O)C(=O)O[C@H]%14C%13OC(=O)c%13cc(O)c(O)c(O)c%13)cc(O)c(O)c%12O)c(O)c(O)c%11-c%11c(cc(O)c(O)c%11O)C(=O)O[C@H]%10C9OC(=O)c9cc(O)c(O)c(O)c9)cc(O)c(O)c8O)c(O)c(O)c7-c7c(cc(O)c(O)c7O)C(=O)O[C@H]6C5OC(=O)c5cc(O)c(O)c(O)c5)cc(O)c(O)c4O)c(O)c(O)c3-c3c(cc(O)c(O)c3O)C(=O)O[C@H]2C1OC(=O)c1cc(O)c(O)c(O)c1)c1cc(O)c(O)c(O)c1 (stereo partly shown) | – | 30.4 | 40.3 | 74.3 | 82.5 | particularly low | superior Maillard reaction inhibitory activity to aminoguanidine | particularly superior | – | – | – | – | –
N=C(N)NN [Aminoguanidine, reference compound] | 273 (≈ 3690 µM) | – | – | – | – | – | – | – | 40.2 | 51.4 | 62 | – | –
O=C1OC2C(O)OC3COC(=O)c4cc(O)c(O)c(O)c4-c4c(O)c(O)c5oc(=O)c6c(c(O)c(O)c7oc(=O)c4c5c76)-c4c(cc(O)c(O)c4O)C(=O)O[C@H]3C2OC(=O)c2cc(O)c(O)c(O)c2-c2c1cc(O)c(O)c2O (stereo partly shown) [Punicalagin, punicalagin] | – | 4.3 | 36.2 | 73.5 | 86.1 | particularly low | superior Maillard reaction inhibitory activity to aminoguanidine | particularly superior | – | – | – | 10.9 | 71.4
O=C1OC[C@H]2OC(O)[C@H](O)[C@@H](O)[C@@H]2OC(=O)c2cc(O)c(O)c(O)c2-c2c(O)c(O)c3oc(=O)c4c(c(O)c(O)c5oc(=O)c2c3c54)-c2c1cc(O)c(O)c2O (stereo partly shown) [Punicalin, punicalin] | – | 7.6 | 32.1 | 73.1 | 84.9 | particularly low | superior Maillard reaction inhibitory activity to aminoguanidine | particularly superior | – | – | – | 6.5 | 69.6

Second part, led by results:

IC50 [mg/L] | SMILES | Maillard reaction inhibition ratio (%) (Conc. 0.01 mg/mL) | Maillard reaction inhibition ratio (%) (Conc. 0.1 mg/mL) | Maillard reaction inhibition ratio (%) (Conc. 1 mg/mL) | Maillard reaction inhibition ratio (%) (Conc. 10 mg/mL) | IC50 values compared with tannic acid, ellagic acid dihydrate and aminoguanidine | Maillard reaction inhibitory activity compared with aminoguanidine (positive control) | Maillard reaction inhibition ratio (%) compared with ellagic acid dihydrate and aminoguanidine | Maillard reaction inhibition ratio (%) (Conc. 100 mg/mL) | Maillard reaction inhibition ratio (%) (Conc. 300 mg/mL) | Maillard reaction inhibition ratio (%) (Conc. 1000 mg/mL) | Maillard reaction inhibition ratio (%) (Conc. 0.03 mg/mL) | Maillard reaction inhibition ratio (%) (Conc. 0.3 mg/mL)
0.13 | O=C(OC1C(O)OC2COC(=O)c3cc(Oc4c(C(=O)OC5C(O)OC6COC(=O)c7cc(Oc8c(C(=O)OC9C(O)OC%10COC(=O)c%11cc(O)c(O)c(O)c%11-c%11c(cc(O)c(O)c%11O)C(=O)O[C@H]%10C9OC(=O)c9cc(O)c(O)c(O)c9)cc(O)c(O)c8O)c(O)c(O)c7-c7c(cc(O)c(O)c7O)C(=O)O[C@H]6C5OC(=O)c5cc(O)c(O)c(O)c5)cc(O)c(O)c4O)c(O)c(O)c3-c3c(cc(O)c(O)c3O)C(=O)O[C@H]2C1OC(=O)c1cc(O)c(O)c(O)c1)c1cc(O)c(O)c(O)c1 (stereo partly shown) [Compound represented by the formula (VI)] | – | 46.6 | 76.7 | 95.4 | particularly low | superior Maillard reaction inhibitory activity to aminoguanidine | – | – | – | – | – | –
0.34 | O=c1oc2c(O)c(O)cc3c(=O)oc4c(O)c(O)cc1c4c23 [Ellagic acid dihydrate, ellagic acid dihydrate, reference compound] | 1.9 | 12.0 | 68.3 | 78.4 | – | – | – | – | – | – | 2.2 | 44.8
0.43 (≈ 0.274 µM) | O=C(OC1C(O)OC2COC(=O)c3cc(Oc4c(C(=O)OC5C(O)OC6COC(=O)c7cc(O)c(O)c(O)c7-c7c(cc(O)c(O)c7O)C(=O)O[C@H]6C5OC(=O)c5cc(O)c(O)c(O)c5)cc(O)c(O)c4O)c(O)c(O)c3-c3c(cc(O)c(O)c3O)C(=O)O[C@H]2C1OC(=O)c1cc(O)c(O)c(O)c1)c1cc(O)c(O)c(O)c1 (stereo partly shown) [Eucarbanin B, eucarbanin B] | – | 21.2 | 72.9 | 79.4 | – | superior Maillard reaction inhibitory activity to aminoguanidine | – | – | – | – | – | –
0.31 (≈ 0.182 µM) | O=C(OC[C@H]1O[C@@H](OC(=O)c2cc(O)c(O)c(OC(=O)c3cc(O)c(O)c(O)c3)c2)[C@H](OC(=O)c2cc(O)c(O)c(OC(=O)c3cc(O)c(O)c(O)c3)c2)[C@@H](OC(=O)c2cc(O)c(O)c(OC(=O)c3cc(O)c(O)c(O)c3)c2)[C@@H]1OC(=O)c1cc(O)c(O)c(OC(=O)c2cc(O)c(O)c(O)c2)c1)c1cc(O)c(O)c(OC(=O)c2cc(O)c(O)c(O)c2)c1 [Tannic acid, reference compound] | 12.7 | 48.7 | 65.1 | 68.8 | – | – | – | – | – | – | – | –
